These results are taken from patent publication US6593322B1, “Compounds and methods for modulation of estrogen receptors” (Signal Pharmaceuticals, Inc., priority 1999, dated 2003).

One data set relates to U2OS ER-Minus cells. The data set is described as follows: IL-6 production in ER-Minus (parental) U2OS osteosarcoma cells. The class given is cell-based, human. The following applies: 24 h.
The next data set addresses T1, human full-length ER-β (Homo sapiens, UniProt Q92731).
T1 construct: expression vectors for human full-length ER-α or ER-β; expressed in transfected cells
As to the kind of experiment: IL-6 production in U2OS osteosarcoma cells stably transfected with ER-β. It counts as cell-based.

The target in the next data set is T2, human full-length ER-α (Homo sapiens, UniProt P03372).
T2 construct: expression vectors for human full-length ER-α or ER-β; expressed in transfected cells
T2 sequence (P03372 1-595): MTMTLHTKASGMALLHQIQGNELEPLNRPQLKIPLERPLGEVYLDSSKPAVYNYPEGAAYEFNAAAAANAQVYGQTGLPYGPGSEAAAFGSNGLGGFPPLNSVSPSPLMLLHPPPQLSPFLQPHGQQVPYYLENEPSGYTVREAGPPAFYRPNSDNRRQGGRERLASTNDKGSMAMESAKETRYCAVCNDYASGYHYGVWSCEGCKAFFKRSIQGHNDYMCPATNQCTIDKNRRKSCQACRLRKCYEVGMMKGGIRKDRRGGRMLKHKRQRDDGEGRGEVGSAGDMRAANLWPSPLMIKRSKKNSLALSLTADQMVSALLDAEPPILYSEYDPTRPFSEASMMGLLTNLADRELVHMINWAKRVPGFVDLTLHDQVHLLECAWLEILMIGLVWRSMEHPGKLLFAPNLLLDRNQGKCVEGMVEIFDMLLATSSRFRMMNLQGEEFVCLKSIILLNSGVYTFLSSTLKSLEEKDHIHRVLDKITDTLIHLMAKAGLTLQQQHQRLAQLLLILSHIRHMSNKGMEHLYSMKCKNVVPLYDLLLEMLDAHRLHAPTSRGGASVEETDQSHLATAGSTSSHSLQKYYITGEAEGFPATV
As to the kind of experiment: IL-6 production in U2OS osteosarcoma cells stably transfected with ER-α. The class given is cell-based.

[1] abbreviates: IL-6 after 10 ng/ml IL-1β and 10 ng/ml TNF-α, 50% inhibition relative to DMSO control.

Where a name gives a salt, the structure may show the parent alone.

T1 sequence (Q92731 whole entry): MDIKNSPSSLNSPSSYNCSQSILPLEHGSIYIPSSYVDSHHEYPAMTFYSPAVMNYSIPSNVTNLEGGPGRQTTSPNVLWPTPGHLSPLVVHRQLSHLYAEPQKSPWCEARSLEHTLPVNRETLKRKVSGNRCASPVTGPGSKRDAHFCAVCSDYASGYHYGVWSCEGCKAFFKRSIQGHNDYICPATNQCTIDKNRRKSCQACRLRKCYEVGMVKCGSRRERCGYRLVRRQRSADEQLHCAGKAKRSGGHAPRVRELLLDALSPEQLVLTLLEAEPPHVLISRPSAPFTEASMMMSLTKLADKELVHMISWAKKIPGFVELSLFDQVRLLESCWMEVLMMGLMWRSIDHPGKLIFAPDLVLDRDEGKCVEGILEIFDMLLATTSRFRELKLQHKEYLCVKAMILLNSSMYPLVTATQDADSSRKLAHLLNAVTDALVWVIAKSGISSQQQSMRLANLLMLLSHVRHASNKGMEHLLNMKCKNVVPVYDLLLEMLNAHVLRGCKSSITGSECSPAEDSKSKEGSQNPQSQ

One may read the IC50 as the midpoint of a concentration-inhibition curve. `O=C(c1ccc(OCCN2CCCCC2)cc1)c1c(-c2ccc(O)cc2)sc2cc(O)ccc12` [Raloxifene Hydrochloride]: in the data set on U2OS ER-Minus cells (Homo sapiens, U2OS), the IC50 is over 1000 nM.
As for `Oc1ccc2c(c1)CCN(c1ccc(F)cc1)C2c1ccc(OCCN2CCCCC2)cc1` (stereo not shown) [Compound A, reference compound], the IC50 at human full-length ER-β is over 10000 nM; on human full-length ER-α, 1 nM; in the data set with U2OS ER-Minus cells (Homo sapiens, U2OS) it was over 10000 nM.
With `Oc1ccc2c(c1)CCN(c1ccccc1)C2Cc1ccc(Br)cc1` (stereo not shown) [Example 2, 1-(4-Bromobenzyl)-2-phenyl-1,2,3,4-tetrahydroisoquinolin-6-ol], the IC50 was 107 nM at human full-length ER-β; over 1000 nM on human full-length ER-α; over 1000 nM in the data set on U2OS ER-Minus cells (Homo sapiens, U2OS).
4-Hydroxy-Tamoxifen: the IC50 with U2OS ER-Minus cells (setting [1]) was over 1000 nM.
In the case of `C[C@]12CC[C@@H]3c4ccc(O)cc4CC[C@H]3[C@@H]1CC[C@@H]2O` [17-β-Estradiol], in the data set on U2OS ER-Minus cells (setting [1]), the half-inhibitory concentration (IC50) is over 1000 nM.
For `Oc1ccc2c(c1)CCCN(c1ccc(F)cc1)C2Cc1ccc(OCCN2CCCCC2)cc1` (stereo not shown) [Example 8], the IC50 is 5000 nM against human full-length ER-β; 10000 nM against human full-length ER-α; over 10000 nM in the data set with U2OS ER-Minus cells (Homo sapiens, U2OS).
Taken in the same sequence, the figures for `Oc1ccc2c(c1)CCN(c1ccc(F)cc1)C2Cc1ccc(OCCN2CCCCC2)cc1` (stereo not shown) [Example 5] were 285 nM, 2010 nM and over 10000 nM.
As a reminder, the melting point is the temperature, or range, at which the solid turns liquid. For `CCN(CCOc1ccc(CC2c3ccc(O)cc3CCN2c2ccc(F)cc2)cc1)Cc1ccccc1` (stereo not shown) [Example 21, 1-{4-[(2-(N-Benzyl-N-ethyl)amino)ethoxy]benzyl}-2-(4-fluorophenyl)-1,2,3,4-tetrahydroisoquinolin-6-ol], the melting point was in the range of 47 to 49 °C.
